Starred links: 1 amine or outer side, 2 acyl side, 3 side chain; linkers in the order of their positions; H or OH if unused. Positions of bridges follow the written chain, without caps; N, C: chain ends. Non-standard residues stand in square brackets, D forms with d. Residues, ends and D or L forms follow the SMILES beside them. Chains are numbered I, II in the order given. Actinocin(9to1) = Cc1c2oc3c(C)ccc(C(=O)[*:1])c3nc-2c(C(=O)[*:2])c(N)c1=O; NMeV = CN[C@H](C(=O)O)C(C)C; Sar = CNCC(=O)O
Key:
[1] = tested on: SKBR-3 cells; test: Synergistic apoptosis with chemotherapeutic, SKBR-3; type: cell-based, human; conditions: 15 nM actinomycin D alone
Protocol: (§1) FIG. 9A: Her-2 positive human tumor cells (NCI-N87, SKBR-3 and SKOV-3) were cultured in the presence of the fusion protein, actinomycin D or both for 1 day; and cell viability was detected using a CCK-8 kit.
(§2) In the following, the Her-2 positive tumor cells were all obtained from the Cell Bank of the Chinese Academy of Sciences. […] Cell viability was detected by MTT assay.

[2] = tested on: NCI-N87 cells; test: Synergistic apoptosis with chemotherapeutic, NCI-N87; type: cell-based, human; design: effect on viability of NCI-N87 cells: dose or concentration left out as unconfirmed
Description: FIG. […]
as §2

[3] = tested on: SKOV-3 cells; test: Synergistic apoptosis with chemotherapeutic, SKOV-3; type: cell-based, human; conditions: 15 nM actinomycin D alone
Protocol: as §1, §2

[4] = tested on: BT-474 cells; test: Synergistic apoptosis with chemotherapeutic, BT-474; type: cell-based, human; conditions: 33 μM or 11 μM doxorubicin alone
[5] = tested on: Her-2 positive human gastric cancer cells NCI-N87; test: Cytotoxicity of Her-2 antibody-TNFα fusion protein on NCI-N87 cells; type: cell-based; conditions: at concentrations corresponding to the fusion protein below 20 ng/ml
Protocol: FIG. 7A: the NCI-N87 cells were incubated with the antibody-TNFα fusion protein at different concentrations for 1 day; and cell survival was detected using a CCK-8 kit.
The day before experiment, the cells ([…]) in growth medium (150 μl) were added onto a 96-well plate. […] Cell viability was detected using MTT assay and cell viability using CCK-8.

Molecule: Cc1c2oc3c(C)ccc(C(=O)N[C@@H]4C(=O)N[C@H](C(C)C)C(=O)N5CCC[C@H]5C(=O)N(C)CC(=O)N(C)[C@@H](C(C)C)C(=O)O[C@@H]4C)c3nc-2c(C(=O)N[C@@H]2C(=O)N[C@H](C(C)C)C(=O)N3CCC[C@H]3C(=O)N(C)CC(=O)N(C)[C@@H](C(C)C)C(=O)O[C@@H]2C)c(N)c1=O [actinomycin D] (I: T[dV]P[Sar][NMeV] / II: T[dV]P[Sar][NMeV]; ester I:1-I:C, II:1-II:C; linker I:N-II:N via Actinocin(9to1))
- apoptosis in SKBR-3 cells [1]: 70%
- apoptosis in NCI-N87 cells ([2]; 15 nM actinomycin D alone): 25%
- impact on survival of SKOV-3 cells [3]: Neither 100 ng/ml of Trastuzumab-TNFα fusion protein nor 15 nM of actinomycin D, when used alone, had an impact on survival of SKOV-3 cells

Molecule: COc1cccc2c1C(=O)c1c(O)c3c(c(O)c1C2=O)C[C@@](O)(C(=O)CO)C[C@@H]3O[C@H]1C[C@H](N)[C@H](O)[C@H](C)O1 [doxorubicin]
- effect on viability of NCI-N87 cells [2]: little effect on viability
- effect on viability of BT-474 cells [4]: little effect on viability

Molecule: TNFα
- apoptosis in NCI-N87 cells [5]: induced no or little apoptosis

From patent US12344646B2, “Antibody-TNF α fusion protein and its preparation and applications” (priority 2018, dated 2025)
